Here are results for eleven compounds from ChEMBL document CHEMBL1123890, “Combined analgesic/neuroleptic activity in N-butyrophenone prodine-like compounds” (J Med Chem, 1987).

For one experiment, the target named is D(1A) dopamine receptor (Rattus norvegicus, UniProt P18901). Kind of experiment: Inhibitory concentration against rat striatal dopamine (D1) sensitive adenylate cyclase activity. It counts as functional.
For experiment [1], the system named is Mus musculus. Briefly: In vivo analgesic activity in mice after subcutaneous administration by hot plate assay method. It counts as functional. The following applies: sc.
The species named for another experiment is Rattus norvegicus. Briefly: The dose required to reduce the number of apomorphine induced rotation by 50% in rats with monolateral lesion of nigrostriatal tracts. It counts as functional. The following applies: Nigrostriatal tract.
A further experiment deals with Opioid receptor (Rattus norvegicus, UniProt P33533+P34975+P33535). Kind of experiment: Ability to inhibit the specific binding of [3H]- dihydromorphine to opiate receptors in rat brain membrane preparation by 50%. In kind it is cell membranes.
Another experiment concerns the target D(2) dopamine receptor (Rattus norvegicus, UniProt P61169). Briefly: Ability to inhibit the specific binding of [3H]- spiroperidol to Dopamine receptor D2 in rat striatal membrane preparation by 50%. It counts as cell membranes, Striatum.
In experiment [2] the test system is Mus musculus. Kind of experiment: In vivo analgesic activity in mice after subcutaneous administration by hot plate assay method; inactive at 25 mg. It counts as functional, organism-based. (In general: Thermal pain tests record how soon the animal reacts.)
The test system of experiment [3] is Mus musculus. Briefly: In vivo analgesic activity in mice after subcutaneous administration by hot plate assay method. It counts as functional. The following applies: sc.

The source made the active and inactive calls. No cut-off for these calls is given here. Where only a bound is given, the exact number is not on record here.

D(2) dopamine receptor, sequence (P61169 whole entry): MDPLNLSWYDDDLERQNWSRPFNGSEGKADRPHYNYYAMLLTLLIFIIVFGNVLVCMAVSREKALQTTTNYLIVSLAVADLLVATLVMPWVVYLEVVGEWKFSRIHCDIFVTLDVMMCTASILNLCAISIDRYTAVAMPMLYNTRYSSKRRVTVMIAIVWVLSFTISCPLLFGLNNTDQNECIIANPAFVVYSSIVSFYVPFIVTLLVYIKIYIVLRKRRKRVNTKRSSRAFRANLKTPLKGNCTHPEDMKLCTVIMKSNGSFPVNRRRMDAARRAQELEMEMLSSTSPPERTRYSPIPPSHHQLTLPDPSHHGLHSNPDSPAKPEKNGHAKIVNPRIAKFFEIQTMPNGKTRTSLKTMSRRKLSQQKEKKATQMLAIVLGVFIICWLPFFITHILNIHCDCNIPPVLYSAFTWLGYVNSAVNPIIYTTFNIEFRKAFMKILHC
D(1A) dopamine receptor, sequence (P18901 whole entry): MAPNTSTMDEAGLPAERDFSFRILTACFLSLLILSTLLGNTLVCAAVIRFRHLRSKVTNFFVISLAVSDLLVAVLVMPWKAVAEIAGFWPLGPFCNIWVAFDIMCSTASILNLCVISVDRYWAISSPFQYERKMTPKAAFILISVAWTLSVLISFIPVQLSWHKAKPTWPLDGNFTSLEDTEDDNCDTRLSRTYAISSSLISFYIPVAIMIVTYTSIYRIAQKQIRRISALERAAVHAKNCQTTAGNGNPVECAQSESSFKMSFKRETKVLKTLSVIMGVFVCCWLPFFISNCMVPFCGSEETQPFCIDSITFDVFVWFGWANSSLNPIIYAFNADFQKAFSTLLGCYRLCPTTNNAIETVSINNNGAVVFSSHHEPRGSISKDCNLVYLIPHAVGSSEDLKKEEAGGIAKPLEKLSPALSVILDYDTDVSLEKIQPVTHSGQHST

What is called IC50 is the concentration at which inhibition is half-maximal. One may read the ED50 as the dose at which the effect has come halfway, by size or by number of responders. For the compound `C[C@@H]1CN(CCCC(=O)c2ccc(F)cc2)CCC1(O)c1ccccc1` (some centres not stated), the results for the IC50 at D(1A) dopamine receptor and on Opioid receptor were 2650 nM and more than 10000 nM, respectively. In addition, the median effective dose (ED50) is more than 5 mg/kg with Mus musculus [1] and 0.93 mg/kg in the experiment filed under Rattus norvegicus.
`O=C(CCCN1CCC(O)CC1)c1ccc(F)cc1`: the IC50 at D(2) dopamine receptor is more than 5000 nM; at Opioid receptor, 5500 nM. For the same compound, the ED50 result with Mus musculus [2] is “inactive”. Further, in the experiment listed under Rattus norvegicus, the 50% effect level (ED50) was put at a dose of 5.84 mg/kg.
Consider `CCC(=O)OC1(c2ccccc2)CCN(CCCC(=O)c2ccc(F)cc2)C[C@H]1C` (some centres not stated), for which the results for the ED50 in the experiment on Mus musculus [3] and in the experiment filed under Rattus norvegicus were 0.65 mg/kg and 1.59 mg/kg, respectively. Also, the IC50 worked out at 46.9 nM at D(2) dopamine receptor, 3200 nM against D(1A) dopamine receptor and 8.67 nM at Opioid receptor.
The like results for `CCC(=O)OC1(c2ccccc2)CCN(CCCC(=O)c2ccc(F)cc2)C[C@@H]1C` (some centres not stated) were, in that order, 0.23 mg/kg, 0.22 mg/kg, 33.5 nM, 2600 nM and 3.33 nM.
For the compound `CCC(=O)OC1CCN(CCCC(=O)c2ccc(F)cc2)CC1`, the figures for the IC50 on D(2) dopamine receptor and on Opioid receptor were more than 50000 nM and 598 nM, respectively. For the same compound, in the experiment listed under Rattus norvegicus, the 50% effect level (ED50) was put at a dose of 4.82 mg/kg.
As to `CCC(=O)OC1(c2ccccc2)CCN(CCCC(=O)c2ccc(F)cc2)CC1`, the ED50 in the experiment with Mus musculus [3] amounted to 0.32 mg/kg; in the experiment filed under Rattus norvegicus it was 0.2 mg/kg. The IC50 stood at 28.8 nM at D(2) dopamine receptor, 2400 nM on D(1A) dopamine receptor and 2.96 nM at Opioid receptor.
As to `O=C(CCCN1CCC(c2ccccc2)CC1)c1ccc(F)cc1`, the IC50 on D(2) dopamine receptor was 69.9 nM; at D(1A) dopamine receptor, 7500 nM; on Opioid receptor, more than 10000 nM. In addition, the ED50 in the experiment with Mus musculus [1] came out at 5 mg/kg; in the experiment filed under Rattus norvegicus it was 1.31 mg/kg.
Turning to `C[C@H]1CN(CCCC(=O)c2ccc(F)cc2)CCC1(O)c1ccccc1` (some centres not stated), the figures for the IC50 at D(1A) dopamine receptor and on Opioid receptor were 1650 nM and more than 10000 nM, respectively. Moreover, the figures for the ED50 in the experiment on Mus musculus [1] and in the experiment filed under Rattus norvegicus were more than 5 mg/kg and 1.54 mg/kg, respectively.
As to `CN1CCc2cccc3c2[C@H]1Cc1ccc(O)c(O)c1-3` [APOMORPHINE], the concentration for half-maximal inhibition (IC50) on Opioid receptor was found to be 302 nM.
As to `CN1CC[C@]23c4c5ccc(O)c4O[C@H]2[C@@H](O)C=C[C@H]3[C@H]1C5.Cl` [MORPHINE HYDROCHLORIDE], the ED50 in the experiment with Mus musculus [1] is 1.2 mg/kg.
Take `O=C(CCCN1CCC(O)(c2ccccc2)CC1)c1ccc(F)cc1`: the IC50 at D(2) dopamine receptor came to 47.1 nM; against D(1A) dopamine receptor it was 2800 nM; on Opioid receptor it was 3215 nM. Further, the 50% effective dose (ED50) was more than 5 mg/kg in the experiment with Mus musculus [1] and 0.35 mg/kg in the experiment listed under Rattus norvegicus.
